Laboratory results published in patent US20220323414A1, “FARNESOID X RECEPTOR AGONISTS FOR THE TREATMENT OF DISEASE” (Metacrine, Inc., priority 2018, published 2022).
Values belong to the compound of their own block, whether it stands above or below them.

What was measured:
[1] = test system: gamma-glutamyl transferase (GGT); assay: NASH clinical trial Part 1: GGT; format: in vivo, human; settings: NASH patients, 50 mg daily
Description: (§1) Part 1: An open-label, uncontrolled, single-center study assessing 50 mg of Compound 1 treatment for 4 weeks; 10 subjects were enrolled.
(§2) Length of Study: Subjects enrolled in Part 1 participated in the study for approximately 12 weeks, which included a 4-week screening period, 4 weeks (28 days) for the treatment period, and 4 weeks for follow-up. Subjects enrolled in Part 2 will participate in the study for approximately 20 weeks, which includes an approximate 4-week screening period, 12 weeks (84 days) for the treatment period, and 4 weeks for follow-up. • Study Treatment (Part 1): Subjects enrolled in Part 1 received Compound 1 50 mg for 28 consecutive days. • Study Treatment (Part 2): Subjects enrolled in Part 2 will receive Compound 1 (80 mg or 50 mg) or matching placebo for 84 consecutive days.
The resulting percent changes from baseline for these biomarkers can be seen in FIG. 6A, FIG. 6B.

[2] = test system: fibroblast growth factor 19 (FGF19); assay: Phase 1 MAD pharmacodynamics: plasma FGF19; format: in vivo, human; settings: healthy subjects, multiple doses 20 mg to 150 mg
Description: (§3) PD: Plasma levels of 7-alpha-hydroxy-4-cholesten-3-one (C4), plasma levels of fibroblast growth factor 19 (FGF19), and levels of total bile acids (for Part B only).
(§4) 6 groups of 10 healthy male subjects each to investigate the safety, tolerability, PK, and PD of multiple oral doses of Compound 1. Subjects in all groups received ascending multiple oral doses of Compound 1 or matching placebo once daily on Days 1 to 14. Dosing was conducted under fasted conditions on each dosing day. Patients in each group received multiple oral doses of 20, 40, 50, 80, 100, and 150 mg of Compound 1 once daily on days 1 to 14 of the study. Eight members of each group received Compound 1, and two members of each group received placebo.

hFXR = biological target: T1, hFXR (Homo sapiens, UniProt Q96RI1); assay: In Vitro FXR Assay (TK); format: cell-based; settings: transfected CV-1 cells, luminescence, 18 hrs
T1 construct: expressed in transfected cells; host or cells: CV-1 cells
T1 sequence (Q96RI1 1-486): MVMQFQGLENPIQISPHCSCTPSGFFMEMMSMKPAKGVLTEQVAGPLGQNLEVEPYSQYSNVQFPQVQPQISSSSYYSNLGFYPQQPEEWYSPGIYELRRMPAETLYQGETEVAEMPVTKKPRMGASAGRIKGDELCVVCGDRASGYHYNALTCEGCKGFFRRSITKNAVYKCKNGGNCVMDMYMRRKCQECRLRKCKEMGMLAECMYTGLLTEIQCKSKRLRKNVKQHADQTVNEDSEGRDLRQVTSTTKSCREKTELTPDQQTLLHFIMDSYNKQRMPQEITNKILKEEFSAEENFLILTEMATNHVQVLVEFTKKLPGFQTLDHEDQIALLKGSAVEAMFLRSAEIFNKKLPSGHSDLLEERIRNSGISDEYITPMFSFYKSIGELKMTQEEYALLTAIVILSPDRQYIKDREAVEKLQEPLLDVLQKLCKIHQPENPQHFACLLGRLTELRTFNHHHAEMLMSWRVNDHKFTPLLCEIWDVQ
T1 sequence (P19793 1-462 partner): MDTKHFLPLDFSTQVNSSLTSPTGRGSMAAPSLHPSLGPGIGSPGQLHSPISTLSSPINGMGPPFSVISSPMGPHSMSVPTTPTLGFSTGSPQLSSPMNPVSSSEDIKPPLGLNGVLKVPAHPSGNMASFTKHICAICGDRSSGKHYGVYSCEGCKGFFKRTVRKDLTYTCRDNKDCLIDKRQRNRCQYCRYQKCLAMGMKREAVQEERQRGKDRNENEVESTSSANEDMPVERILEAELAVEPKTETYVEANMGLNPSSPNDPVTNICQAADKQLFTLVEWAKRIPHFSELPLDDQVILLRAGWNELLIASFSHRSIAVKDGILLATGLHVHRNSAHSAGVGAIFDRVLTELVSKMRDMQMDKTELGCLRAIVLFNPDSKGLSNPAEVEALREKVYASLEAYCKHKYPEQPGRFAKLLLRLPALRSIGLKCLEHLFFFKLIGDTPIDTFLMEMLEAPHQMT
Description: CV-1 cells were seeded at a density of 2,000,000 cells in a T175 flask with DMEM+10% charcoal double-stripped FBS and incubated at 37° C. in 5% CO2 for 18 h (O/N).
After 18 h of incubation, the medium in the T175 flask was changed with fresh DMEM+10% charcoal super-stripped serum. In a polypropylene tube, 2500 μL OptiMEM (Life Technologies, Cat #31985-062) was combined with expression plasmids for hFXR, hRXR, TK-ECRE-luc and pCMX-YFP. The tube was then briefly vortexed and incubated at room temperature for 5 minutes. Transfection reagent (X-tremeGENE HP from Roche, Cat #06 366 236 001) was added to the OptiMEM/plasmid mixture vortexed and incubated at room temperature for 20 minutes. Following incubation, the transfection reagent/DNA mixture complex was added to cells in the T175 flask and the cells were incubated at 37° C. in 5% CO2 for 18 h (O/N).
Compounds were serially diluted in DMSO and added to transfected CV-1 cells. The cells were then incubated for 18 hrs. The next day cells were lysed and examined for luminescence.

[3] = test system: subjects with NASH (liver fat content); assay: NASH clinical trial Part 1: hepatic fat; format: in vivo, human; settings: NASH patients, 50 mg daily, after 28 days
Description: Purpose: The purposes of this study was to evaluate the safety and tolerability of Compound 1 monotherapy in subjects with NASH, to characterize the pharmacokinetics (PK) of Compound 1, to characterize the pharmacodynamics (PD) of Compound 1 dose and response, to estimate the activity of Compound 1 using Magnetic Resonance Imaging-Proton Density Fat Fraction (MRI-PDFF) and NASH fibrosis biomarkers.
as §1
Length of Study: Subjects enrolled in Part 1 participated in the study for approximately 12 weeks, which included a 4-week screening period, 4 weeks (28 days) for the treatment period, and 4 weeks for follow-up. […]
The 10 patients with NASH who enrolled in the study received 50 mg doses of Compound 1 daily for a period of 28 days as described above. Hepatic fat levels in each patient were assessed prior to treatment with Compound 1, after 28 days of treatment with Compound 1, then again 28 days after cessation of treatment with Compound 1.

total bile acids = assay: Phase 1 MAD pharmacodynamics: total bile acids; format: in vivo, human; settings: healthy subjects, 50-150 mg/day cohorts, day 14
Description: as §3, §4

[4] = test system: 7-alpha-hydroxy-4-cholesten-3-one (C4); assay: Phase 1 MAD pharmacodynamics: plasma C4; format: in vivo, human; settings: healthy subjects
Description: as §3, §4

[5] = NASH clinical trial Part 1: plasma levels of Compound 1; format: in vivo, human; settings: 50 mg, healthy and NASH patients
Description: as §1
Pharmacokinetic Assessments: Blood samples will be taken according to the PK sampling schedule.
as §2

[6] = Phase 1 multiple ascending dose PK in healthy subjects (plasma Compound 1 concentrations); format: in vivo, human
From the text: Purpose: The purposes of this study was to assess the safety and tolerability of single and multiple oral doses of Compound 1, to characterize the pharmacokinetics (PK) of single and multiple oral doses of Compound 1, to characterize the pharmacodynamics (PD) of single and multiple oral doses of Compound 1, and to identify the recommended multiple oral dose level(s) of Compound 1 for future studies in patients. The study was a first-in-human, 2-part, single-center Phase 1, randomized, double-blind, placebo-controlled study in healthy male subjects.
PK: Plasma Compound 1 concentrations, Plasma PK parameters.
as §4

[7] = test system: alanine aminotransferase (ALT); assay: NASH clinical trial Part 1: ALT; format: in vivo, human; settings: NASH patients, 50 mg daily
Description: as §1, §2
Levels of alanine aminotransferase (ALT) and gamma-glutamyl transferase (GGT) were assessed in subjects prior to administration of Compound 1, after 14 days of dosing of Compound 1, and after 28 days of dosing of Compound 1. The resulting percent changes from baseline for these biomarkers can be seen in FIG. 6A, FIG. 6B.

[8] = test system: SCID mice with CD4+CD45RB high T-cell transfer colitis; assay: Adoptive T-cell transfer colitis mouse model; format: in vivo; settings: for reduction of histopathology sum score: vehicle sum score 10
Description: Adoptive T-cell transfer colitis model is accepted as a relevant mouse model for human inflammatory bowel disease (IBD). To induce colitis in this model, the CD4 T-lymphocyte population is isolated from the spleens of donor mice. Subsequently, a subpopulation of CD4+CD45RB high T-cells is purified by cell sorting using flow cytometry. The purified CD4+CD45RB high T-cells are injected into the peritoneal cavity of the recipient severe combined immunodeficiency (SCID) mice. Colitis develops approximately three to six weeks after T-cell transfer, which is monitored by loss of body weight, inconsistent stool or bloody diarrhea. Testing of combinations of an FXR agonist and an additional therapeutic agent described herein is initiated at the same time of injecting purified CD4+CD45RBhigh T-cells to the recipient SCID mice. Alternatively, the combinations of an FXR agonist and an additional therapeutic agent described herein are administered two or three weeks post T-cell transfer, when colitis has already developed in the model. During the period of administering the combinations of an FXR agonist and an additional therapeutic agent described herein to mice, the therapeutic effects may be monitored by observations on body weights, stool consistency, or rectal bleeding. After euthanasia, the disease development and effects of the compounds are further quantified by measuring colon weight and length, and colon histology by H&E staining for inflammation and structural changes in mucosa, and protein and RNA expression of genes related to the disease.

EC50 (hFXR): ≤ 250 nM
plasma levels over the 24 hour period after dosing [5]: remained nearly constant
SMILES: COc1ccc([C@H]2CC[C@H](CN(c3cccc(-c4cnn(C5CC5)c4)c3)C(=O)[C@H]3CC[C@H](O)CC3)CC2)cc1C [Compound 1]
GGT levels decrease [1]: 23.2%
GGT decrease from baseline ([1]; day 28): 36.3%
mean FGF19 levels [2]: increased
time of maximum increase in mean FGF19 levels [2]: 6 to 10 hours post dose
average reduction in fatty liver deposits from baseline [3]: 20.3%
change in bile acid levels (total bile acids): decrease in bile acid levels
dose at which the decrease in C4 levels was notable ([4]; Day 14): ≥ 50 mg
mean C4 levels at 24 hours post dose ([4]; Day 14): remained decreased
mean C4 levels versus placebo ([4]; multiple doses 20 mg to 150 mg, Day 14, most dose levels): lower than for placebo treatment
plasma levels at 24 hours following dosing ([6]; 14 days once daily oral dosing): high levels in the plasma at 24 hours following dosing
plasma drug exposure with dose ([6]; 14 days once daily oral, 20 mg to 150 mg): increase in plasma drug exposure with dose
ALT decrease from baseline ([7]; day 14): 7.9%
ALT below baseline ([7]; day 28): 16.5%

SMILES: COc1ncc(-c2cccc(N(C[C@H]3CC[C@H](c4ccc(OC)c(C)c4)CC3)C(=O)[C@H]3CC[C@H](O)CC3)c2)s1 [Compound 2, (1R,4R)-4-hydroxy-N-(((1R,4R)-4-(4-methoxy-3-methylphenyl)cyclohexyl)methyl)-N-(3-(2-methoxythiazol-5-yl)phenyl)cyclohexane-1-carboxamide]
reduction in colon W/L as compared to vehicle ([8]; 10 mg/kg): 41%
reduction of histopathology sum score ([8]; 10 mg/kg): 71%
reduction in colon W/L as compared to vehicle ([8]; 30 mg/kg): 38%
reduction of histopathology sum score ([8]; 30 mg/kg): 74%
reduction in body weight from baseline caused by T-cell transfer ([8]; 12% body weight reduction after CD4+CD45RBhi T-cell transfer, Compound 2 at 10 mg/kg): reversed
efficacy in reducing colitis relative to comparators ([8]; adoptive T-cell transfer model): efficacy superior to CsA and comparable to anti-IL-12/23 treatment
